Consider eleven molecules from patent US20230139171A1 (SITA Information Networking Computing UK Limited, priority 2019, published 2023).

The structures appear in SMILES notation.

By IC50 is commonly meant the concentration that gives 50% inhibition.

Assay type in all cases: cell-based
One experiment concerns the target T1, human TLR7 (Homo sapiens, UniProt Q9NYK1).
T1 construct: host or cells: HEK-Blue cells
T1 sequence (Q9NYK1 27-1049): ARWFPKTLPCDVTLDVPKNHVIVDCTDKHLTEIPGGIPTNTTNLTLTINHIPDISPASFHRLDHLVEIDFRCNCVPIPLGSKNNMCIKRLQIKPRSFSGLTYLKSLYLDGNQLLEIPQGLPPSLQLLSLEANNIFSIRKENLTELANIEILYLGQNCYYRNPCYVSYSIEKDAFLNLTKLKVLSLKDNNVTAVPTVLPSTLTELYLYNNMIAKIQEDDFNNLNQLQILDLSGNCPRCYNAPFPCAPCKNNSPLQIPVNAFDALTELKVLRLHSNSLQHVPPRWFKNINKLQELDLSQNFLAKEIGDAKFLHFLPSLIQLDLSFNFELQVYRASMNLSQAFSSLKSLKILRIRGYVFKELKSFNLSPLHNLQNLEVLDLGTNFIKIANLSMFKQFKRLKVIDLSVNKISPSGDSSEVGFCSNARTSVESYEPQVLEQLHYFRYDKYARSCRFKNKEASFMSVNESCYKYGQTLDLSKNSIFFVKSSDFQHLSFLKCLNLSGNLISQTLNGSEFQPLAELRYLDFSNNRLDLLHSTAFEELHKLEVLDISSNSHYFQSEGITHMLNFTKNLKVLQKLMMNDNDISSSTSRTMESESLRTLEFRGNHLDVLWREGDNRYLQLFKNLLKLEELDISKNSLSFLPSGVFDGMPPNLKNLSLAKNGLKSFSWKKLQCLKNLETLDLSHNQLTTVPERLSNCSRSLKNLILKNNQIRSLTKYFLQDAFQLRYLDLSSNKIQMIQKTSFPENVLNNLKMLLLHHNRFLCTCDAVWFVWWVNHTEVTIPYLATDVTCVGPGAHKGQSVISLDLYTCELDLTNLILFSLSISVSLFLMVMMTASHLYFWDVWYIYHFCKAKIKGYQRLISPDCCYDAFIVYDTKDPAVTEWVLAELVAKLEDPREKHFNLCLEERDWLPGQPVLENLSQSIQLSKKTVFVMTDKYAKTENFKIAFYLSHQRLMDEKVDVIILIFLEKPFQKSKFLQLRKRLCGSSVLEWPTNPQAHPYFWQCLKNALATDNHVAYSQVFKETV
Briefly: TLR7 inhibition reporter assay (HEK-Blue cells, SEAP reporter, gardiquimod stimulation). The settings on record: HEK-Blue cells overexpressing human TLR7, SEAP reporter, gardiquimod 7.5 μM; read-out: TLR7 IC50. In short, it runs like this: (§1)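 Dose–response from 0.05 nM to 50 μM was run in HEK-Blue human TLR7, TLR8 and TLR9 reporter cells. After 30 min at room temperature with compound, ligand was added (TLR7 gardiquimod 7.5 μM; TLR8 R848 15.9 μM; TLR9 ODN2006 5 nM) and SEAP measured next day, at 22 h.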

The target of another experiment is T2, human TLR9 (Homo sapiens, UniProt Q9NR96).
T2 construct: host or cells: HEK-Blue cells
T2 sequence (Q9NR96 26-1032): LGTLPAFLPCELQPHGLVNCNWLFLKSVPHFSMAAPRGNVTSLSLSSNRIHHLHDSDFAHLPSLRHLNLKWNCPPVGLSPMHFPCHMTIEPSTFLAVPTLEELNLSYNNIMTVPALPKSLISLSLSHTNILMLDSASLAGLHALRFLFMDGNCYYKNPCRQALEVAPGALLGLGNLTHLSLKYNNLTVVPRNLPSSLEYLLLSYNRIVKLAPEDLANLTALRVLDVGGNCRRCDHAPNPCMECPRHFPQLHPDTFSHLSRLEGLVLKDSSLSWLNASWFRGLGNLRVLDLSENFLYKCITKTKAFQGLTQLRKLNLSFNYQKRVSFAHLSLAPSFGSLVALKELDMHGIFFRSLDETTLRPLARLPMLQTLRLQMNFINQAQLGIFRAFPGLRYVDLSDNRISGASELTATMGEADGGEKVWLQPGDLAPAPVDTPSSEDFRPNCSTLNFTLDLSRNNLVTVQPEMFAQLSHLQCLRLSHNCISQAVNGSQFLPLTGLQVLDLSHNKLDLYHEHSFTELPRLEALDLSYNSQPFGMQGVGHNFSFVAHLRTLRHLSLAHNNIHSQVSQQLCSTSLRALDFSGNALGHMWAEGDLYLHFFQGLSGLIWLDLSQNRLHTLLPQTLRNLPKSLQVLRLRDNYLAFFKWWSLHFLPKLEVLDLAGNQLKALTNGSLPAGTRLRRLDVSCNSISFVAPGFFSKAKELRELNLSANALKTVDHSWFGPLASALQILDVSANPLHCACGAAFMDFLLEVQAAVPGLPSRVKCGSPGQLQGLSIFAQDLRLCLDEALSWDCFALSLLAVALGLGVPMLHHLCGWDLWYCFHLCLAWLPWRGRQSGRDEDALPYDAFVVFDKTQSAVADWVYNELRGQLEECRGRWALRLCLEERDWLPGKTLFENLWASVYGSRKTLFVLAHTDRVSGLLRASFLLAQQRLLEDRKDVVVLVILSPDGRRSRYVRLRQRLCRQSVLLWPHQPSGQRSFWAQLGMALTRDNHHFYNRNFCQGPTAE
Put plainly: TLR9 inhibition reporter assay (HEK-Blue cells, SEAP reporter, ODN2006 stimulation). The settings on record: HEK-Blue cells overexpressing human TLR9, SEAP reporter, ODN2006 5 nM. In short, it runs like this: as §1
(In general: A reporter such as luciferase makes a cellular process visible.)

Another experiment addresses T3, human TLR8 (Homo sapiens, UniProt Q9NR97).
T3 construct: host or cells: HEK-Blue cells
T3 sequence (Q9NR97 27-1041): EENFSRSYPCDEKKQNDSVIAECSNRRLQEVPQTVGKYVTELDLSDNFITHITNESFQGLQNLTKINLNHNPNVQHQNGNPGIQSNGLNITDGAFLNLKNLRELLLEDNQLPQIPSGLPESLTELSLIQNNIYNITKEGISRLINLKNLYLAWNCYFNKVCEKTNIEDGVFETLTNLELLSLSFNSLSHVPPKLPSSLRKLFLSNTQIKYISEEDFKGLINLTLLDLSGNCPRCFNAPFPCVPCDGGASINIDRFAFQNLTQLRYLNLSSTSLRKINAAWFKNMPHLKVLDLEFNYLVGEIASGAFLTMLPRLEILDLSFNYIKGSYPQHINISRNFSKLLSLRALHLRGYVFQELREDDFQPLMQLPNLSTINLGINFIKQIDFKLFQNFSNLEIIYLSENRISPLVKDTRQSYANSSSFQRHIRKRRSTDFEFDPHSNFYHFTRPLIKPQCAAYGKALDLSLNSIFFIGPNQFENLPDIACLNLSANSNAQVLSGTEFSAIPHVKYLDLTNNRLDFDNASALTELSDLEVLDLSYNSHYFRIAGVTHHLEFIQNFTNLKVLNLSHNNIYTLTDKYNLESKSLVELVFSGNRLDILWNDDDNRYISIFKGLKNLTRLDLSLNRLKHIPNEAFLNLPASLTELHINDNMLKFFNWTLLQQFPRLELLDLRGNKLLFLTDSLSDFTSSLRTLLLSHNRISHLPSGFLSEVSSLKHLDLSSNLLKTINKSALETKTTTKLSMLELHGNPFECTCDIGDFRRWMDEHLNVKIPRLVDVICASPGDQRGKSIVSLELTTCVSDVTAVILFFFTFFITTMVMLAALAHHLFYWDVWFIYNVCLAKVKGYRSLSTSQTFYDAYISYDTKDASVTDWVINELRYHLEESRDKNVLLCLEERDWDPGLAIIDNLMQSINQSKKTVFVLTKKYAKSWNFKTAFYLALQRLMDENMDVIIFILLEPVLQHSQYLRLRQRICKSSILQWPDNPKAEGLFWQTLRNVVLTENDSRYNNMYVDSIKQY
Put plainly: TLR8 inhibition reporter assay (HEK-Blue cells, SEAP reporter, R848 stimulation). As to conditions: HEK-Blue cells overexpressing human TLR8, SEAP reporter, R848 15.9 μM; read-out: TLR8 IC50. In outline: as §1

With `CCc1c(-c2cc(OC)c3ncnn3c2)[nH]c2sc(C3CCC(N4CC5(COC5)C4)CC3)nc12` (single isomer, unassigned) [Example 269, 6-(4-(6-ethyl-5-(8-methoxy-[1,2,4]triazolo[1,5-a]pyridin-6-yl)-4H-pyrrolo[3,2-d]thiazol-2-yl)cyclohexyl)-2-oxa-6-azaspiro[3.3]heptane], the results for the IC50 on human TLR7, against human TLR9 and on human TLR8 were 4.31 nM, 6280 nM and 2.55 nM, respectively.
`CCc1c(-c2cc(OC)c3ncnn3c2)[nH]c2sc(C3CCC(N4CC5(COC5)C4)CC3)nc12` (single isomer, unassigned) [Example 270, 6-(4-(6-ethyl-5-(8-methoxy-[1,2,4]triazolo[1,5-a]pyridin-6-yl)-4H-pyrrolo[3,2-d]thiazol-2-yl)cyclohexyl)-2-oxa-6-azaspiro[3.3]heptane]: the IC50 was found to be 8.99 nM at human TLR7, 3460 nM at human TLR9 and 14 nM at human TLR8.
For `CCc1c(-c2cc(OC)c3ncnn3c2)[nH]c2sc(C3CCC(NC4COC4)CC3)nc12` (single isomer, unassigned) [Example 271, N-(4-(6-ethyl-5-(8-methoxy-[1,2,4]triazolo[1,5-a]pyridin-6-yl)-4H-pyrrolo[3,2-d]thiazol-2-yl)cyclohexyl) oxetan-3-amine], in that order: 0.96 nM, 4560 nM and 1.94 nM.
The matching figures for `CCc1c(-c2cc(OC)c3ncnn3c2)[nH]c2sc(C3CCC(NC4COC4)CC3)nc12` (single isomer, unassigned) [Example 272, N-(4-(6-ethyl-5-(8-methoxy-[1,2,4]triazolo[1,5-a]pyridin-6-yl)-4H-pyrrolo[3,2-d]thiazol-2-yl)cyclohexyl) oxetan-3-amine]: 137 nM, > 50000 nM and 122 nM.
For `COc1cc(-c2[nH]c3sc(C4CCC(NC5COC5)CC4)nc3c2C)cn2ncnc12` (single isomer, unassigned) [Example 273, N-(4-(5-(8-methoxy-[1,2,4]triazolo[1,5-a]pyridin-6-yl)-6-methyl-4H-pyrrolo[3,2-d]thiazol-2-yl)cyclohexyl)oxetan-3-amine], in that order: 13.7 nM, 5550 nM and 26.5 nM.
As to `COc1cc(-c2[nH]c3sc(C4CCC(N5CCNC(=O)C5)CC4)nc3c2C)cn2ncnc12` (single isomer, unassigned) [Example 275, 4-(4-(5-(8-methoxy-[1,2,4]triazolo[1,5-a]pyridin-6-yl)-6-methyl-4H-pyrrolo[3,2-d]thiazol-2-yl)cyclohexyl)piperazin-2-one], the concentration for half-maximal inhibition (IC50) on human TLR7 is 413 nM; against human TLR9 it was > 50000 nM; at human TLR8 it was 515 nM.
For `COc1cc(-c2[nH]c3sc(C4CCC(N5CCNC(=O)C5)CC4)nc3c2C)cn2ncnc12` (single isomer, unassigned) [Example 276, 4-(4-(5-(8-methoxy-[1,2,4]triazolo[1,5-a]pyridin-6-yl)-6-methyl-4H-pyrrolo[3,2-d]thiazol-2-yl)cyclohexyl)piperazin-2-one], in that order: 975 nM, > 50000 nM and > 3130 nM.
For `Cc1c(-c2[nH]c3sc(C(=O)NC4CCC(N(C)C)CC4)nc3c2C(C)C)cn2ncnc2c1C` (single isomer, unassigned) [Example 368, 5-(7,8-dimethyl-[1,2,4]triazolo[1,5-a]pyridin-6-yl)-N-(4-(dimethylamino)cyclohexyl)-6-isopropyl-4H-pyrrolo[3,2-d]thiazole-2-carboxamide], in that order: 10.5 nM, 5460 nM and 28.1 nM.
For `Cc1c(-c2[nH]c3sc(C(=O)NC4CCC(N(C)C)CC4)nc3c2C(C)C)cn2ncnc2c1C` (single isomer, unassigned) [Example 369, 5-(7,8-dimethyl-[1,2,4]triazolo[1,5-a]pyridin-6-yl)-N-(4-(dimethylamino)cyclohexyl)-6-isopropyl-4H-pyrrolo[3,2-d]thiazole-2-carboxamide], in that order: 18 nM, 46900 nM and 33 nM.
Regarding `COc1cc(-c2[nH]c3sc(C4CCNCC4)nc3c2C(C)C)cn2ncnc12` [Example 1, 6-isopropyl-5-(8-methoxy-[1,2,4]triazolo[1,5-a]pyridin-6-yl)-2-(piperidin-4-yl)-4H-pyrrolo[3,2-d]thiazole], the IC50 at human TLR7 is 2.01 nM; at human TLR9 it was 760 nM; at human TLR8 it was 8.14 nM.
For `Cc1cc(-c2[nH]c3sc(C4CCNCC4)nc3c2C(C)C)cn2ncnc12` [Example 2, 6-isopropyl-5-(8-methyl-[1,2,4]triazolo[1,5-a]pyridin-6-yl)-2-(piperidin-4-yl)-4H-pyrrolo[3,2-d]thiazole], in that order: 2.27 nM, 6560 nM and 5.82 nM.
